Experimental findings from patent EP0369810A2, “PAF antagonists as anti-hyperendothelinemia agents” (Takeda Chemical Industries, Ltd., priority 1988, dated 1990) are described below.

Each structure is given as a SMILES string. Read-outs that look alike come from different tables or passages of the source. Marks after values point to notes of the source that are not given here. Bounds are passed on as bounds.

The test system of data set [1] is Male Spraque Dawley (Jcl) rats. Nature of the data set: Effect on acute renal failure in rats (bilateral renal artery occlusion and reperfusion). The data set is classed as in vivo, rat. As to conditions: oral dose of 30 mg/kg 1 hour prior to occlusion; 45 min occlusion, 20 hours reperfusion. How it is done:
Male Spraque Dawley (Jcl) rats, 5 weeks old, were anesthetized with sodium pentobarbital (50 mg/kg, i.p.) and the renal artery was occluded bilaterally for 45 minutes followed by reperfusion for 20 hours. The blood was collected from the abdominal aorta under anesthesia for measurement of blood urea nitrogen (BUN).

A further data set in a line: Acute toxicities. Particulars: rat, in vivo. As for the experimental part: PAF antagonists were administered to male Wistar rats (4-6 weeks old) to observe the acute toxicities.
The subject of another data set is M-SHRsp. The data set is described as follows: Protective action on ischemic cerebral damage in M-SHRsp (bilateral carotid occlusion and reperfusion). The data set is classed as in vivo, rat. Particulars: 24 hour reperfusion. As for the experimental part: Male malignant spontaneously hypertensive rats (M-SHRsp), 8 weeks old, were used. The carotid artery was occluded bilaterally for 1 hour under conscious condition followed by reperfusion for 24 hours. The drug was orally given 1 hour prior to the occlusion of the artery. The survival rate of rats was estimated during the 24 hour reperfusion.

The test system of another data set is glomerulonephritic rats. The data set is described as follows: Antiproteinuric action in glomerulonephritic rats. The data set is classed as in vivo, rat. Particulars: urinary excretion; 100 mg/kg p.o. once a day for 4 weeks. As for the experimental part: Glomerulonephritis in rats was prepared according to the method by Nagamatsu et al. (Folia Pharmacol. Jpn. 78, 491, 1981). The mixture of 3 mg rabbit serum albumin (RSA) and the same amount of complete Freund's adjuvant was prepared. One ml/rat (3 mg/rat) of the mixture was first injected subcutaneously to 5 weeks old Spraque Dawley (Jcl) rats. 2 weeks later, RSA (1 mg/rat) was injected intravenously 3 times a week for 8 weeks. At the point of RSA injection for the first 4 weeks, urine was collected from the rat for 24 hours to measure urinary excretion of albumin and total protein. According to the value of albumin and total protein obtained, the rats were separated into 2 groups of the control and the treatment group. Then, the drug or vehicle was orally given once a day for 4 weeks and the 24 hour-urine at the 4 week of the dosage was collected for measurement of urinary albumin and total protein.

Data set [2] relates to cultured rat vascular smooth muscle cells. The data set is described as follows: Inhibition of endothelin-induced elevation of cytosolic calcium concentration (fura-2 fluorescence). The data set is classed as cell-based. Particulars: endothelin 4 x 10-^9 M, read-out: Inhibitory activity (%); for inhibition at 0.4 µM: compound 4 x 10^-7 M; for inhibition at 0.04 µM: compound 4 x 10^-8 M; for inhibition at 4 µM: compound 4 x 10^-6 M. How it is done:
A glass cover slide coated with 4 µM fura-2-loaded cultured rat vascular smooth muscle cells was inserted into a quartz cuvette which contained 2.5 ml HEPES buffer (pH 7.2). On this occasion, the glass cover slide was fixed on a diagonal of 45° to the direction of excitation light. The fluoroscence was measured in a Hitachi F-4000 spectrofluorimeter. Wavelengths were set at 340 nm and 380 nm for excitation and 505 nm for emission. Fmax and Fmin were estimated after addition of ionomycin (2 µM; Calbiochem) as calcium ionophore and EGTA (8 mM) as calcium ion-chelator, respectively. The cytosolic calcium ion concentration [Ca^++]i values were calculated by Tsien et al. formula: [Ca^++]-i = kd*(F-Fmin)/(Fmax-F) with modifications assuming kd = 224 nM, i.e. by the formulas: • [Ca^++]i = kd*(R-Rmin)*Sf2/(Rmax-R)*Sb2 • R = [D(W1)-AutoF1]/[D(W2)-AutoF2] • D(Wi) : Determined value at wavelength for excitation W1 • D(W2) : Determined value at wavelength for excitation W2 • AutoF1 : self-fluoroscence at W1 • AutoF2 self-fluoroscence at W2 • Rmin : R in zero Ca^++ = Fmin (W1)/Fmin (W2) • Rmax : R in Ca^++-saturated concentration = Fmax (W1)/Fmax (W2) • Sf2 : strength of fluoroscence by free Ca^++ at W2 • Sb2 : strength of fluoroscence by bound Ca^++ at W2 The experiments were carried out as follows: PAF antagonists, the compounds [II], [IV] and [Vllla], were added to the solution in the cuvette. Incubation was conducted for 5 minutes and then endothelin (4 x 10-^9 M) was added to observe changes of strength of fluoroscence.

Data set [3] deals with endothelin. Nature of the data set: Protective effects against endothelin-induced death in mice. The format is in vivo. Particulars: mouse, survival 1 h after endothelin. How it is done: (§1) Male SD-Jcl rats (5-6 weeks old) and male Jcl-ICR mice (5-6 weeks 01 d) were used without anesthetization.
(§2) Physiological saline or drug-dissolved physiological saline was given via the tail vein to a rat in a volume of 1 ml/kg and to a mouse in a volume of 5 ml/kg. Five minutes later, the same volume of endothelin (Peptide Institute; 5 nmol/kg)-dissolved physiological saline was intravenously given.
(§3) In the case of oral administration of a drug, the drug was given in 10 ml/kg of 5% gum arabic suspension one hour before the administration of endothelin.
(§4) One hour after the administration of endothelin, the survival rates were measured, and the effect of the drug was evaluated.

Data set [4] has as its system endothelin. The data set is described as follows: Protective effects against endothelin-induced death in rats. The format is in vivo. As to conditions: rat, survival 1 h after endothelin. As for the experimental part: as §1, §2, §3, §4
The test system of data set [5] is endothelin. Nature of the data set: Protective effects against arrhythmia-inducing activity of endothelin in rats (electrocardiogram). The data set is classed as in vivo, rat. Particulars: anesthetized rats; for PVB counts (15 min.): premature ventricular beats; for VF incidence: ventricular fibrillation; for VT incidence: ventricular tachycardia. How it is done:
Male SD-Jcl rats (9 weeks old) were anesthetized with pentobarbital (50 mg/kg, intraperitoneal injection), and electrocardiogram (Lead II) was monitored on a polygraph. A drug was dissolved in physiological saline and given via the tail vein in a volume of 1 ml/kg. Five minutes later, endothelin (5 nmol/kg) was intravenously administered. In the case of oral administration, a drug was given in 10 ml/kg of 5% gum arabic suspension one hour before the administration of endothelin.

Where [6] appears, read: sustained increase of cytosolic calcium.
[7] abbreviates: transient increase of cytosolic calcium.
[8] abbreviates: 100 mg/kg p.o. 1 h before endothelin 5 nmol/kg i.v.
[9] abbreviates: 30 mg/kg i.v. 5 min before endothelin 5 nmol/kg i.v.
Setting [10] is: 3 mg/kg i.v. 5 min before endothelin 5 nmol/kg i.v.
The mark [11] stands for this setting: 1 mg/kg i.v. 5 min before endothelin 5 nmol/kg i.v.
Where [12] appears, read: 30 mg/kg p.o. 1 h before endothelin 5 nmol/kg i.v.

`CCC[n+]1cc(Br)cc(C(=O)N(CCC(=O)NCCOC(=O)N2CCc3ccccc3C2)c2ccccc2)c1` [Compd [VIIIb]]: the “Blood urea nitrogen (BUN)” value in data set [1] worked out at 88 ± 2 mg/dL.
What is called LD50 is the dose expected to kill half of the subjects tested. A low value points to a more toxic substance. `COc1cc2c(cc1OC)CCCC(C(=O)N1CCN(C(=O)c3cc(OC)c(OC)c(OC)c3)CC1)=C2` [Compd [IV], 1-(2,3-dimethoxy-6,7-dihydro-5H-benzocycloheptenyl-8-carbonyl)-4-(3,4,5-trimethoxybenzoyl)piperazine]: the LD50 in “Acute toxicities” (po) is above 1000 mg/kg. Also, the “Survival rate (24 hr)” value is listed as 2/7 in the data set on M-SHRsp (1 mg/kg p.o. 1 hour prior to occlusion); 6/7* in the data set on M-SHRsp (10 mg/kg p.o. 1 hour prior to occlusion); 6 out of 7 in the data set with M-SHRsp (10 mg/kg p.o. 1 hour prior to occlusion, listed as compound [IV]); 4/4* in the data set on M-SHRsp (100 mg/kg p.o. 1 hour prior to occlusion); “all out of 4” in the data set with M-SHRsp (100 mg/kg p.o. 1 hour prior to occlusion, listed as compound [IV]). This molecule also had an albumin in the data set on glomerulonephritic rats of 17 ± 11 mg/100 g/24 hr. In the data set on glomerulonephritic rats, this molecule had a total protein of 43 ± 16 mg/100 g/24 hr. Moreover, the figures for the inhibition at 0.4 µM in data set [2] (setting [6]) and in data set [2] (setting [7]) were 52.6% and 76.2%, respectively. For the same molecule, the “Protective effect to death Survival Rate (%)” value (“Protective effect … (%)” for short) in the data set on endothelin [3] (setting [8]) is 100** %. Also, the “Protective effect to death Survival Total” value with endothelin [3] (setting [8]) is recorded as 15/15.
For `CCC[n+]1cc(Br)cc(C(=O)N(CCC(=O)NCCOC(=O)N2CCc3ccccc3C2)c2ccccc2)c1` [[VIIIa]], in data set [2] (setting [6]), the inhibition at 0.4 µM worked out at 100% and the inhibition at 0.04 µM amounted to 72.1%. Besides, in data set [2] (setting [7]), the inhibition at 4 µM turned out to be 78.2% and the inhibition at 0.4 µM was 64.2%.
`CCCCCCCCCCCCCCCCCCNC(=O)OCC(COP(=O)([O-])OCC[n+]1ccsc1)OC` (stereo not drawn) [Compd [VI], 3-(N-n-octadenylcarbamoyloxy)-2-methoxypropyl 2-thiazolioethyl phosphate] registered a median lethal dose (LD50) in the data set “Acute toxicities” (iv, male Wistar rats) above 50 mg/kg. For the same molecule, in the data set on endothelin [3] (setting [9]), the “Protective effect … (%)” value is given as 36* % and the “Protective effect to death Survival Total” value was 5/14.
`CCCCCCCCCCCCCCCCCCNC(=O)OCC(COC(=O)N(Cc1cccc[n+]1CC)C(C)=O)OC.[Cl-]` (stereo not drawn) [Compd [II], 2-[N-acetyl-N-(2-methoxy-3-octadecylcarbamoyloxypropoxycarbonyl)-aminomethyl]-1-ethylpyridinium chloride] displayed an LD50 in “Acute toxicities” (iv, male Wistar rats) above 20 mg/kg. For the same molecule, in the data set on endothelin [4] (setting [10]), the “Protective effect … (%)” value was 94** % and the “Protective effect to death Survival Total” value is reported as 15/16. Further, in the data set with endothelin [5] (setting [11]), the “PVB counts (15 min.)” value was determined as 9±8, the VF incidence was 2/9** and the VT incidence was 3/9**. In addition, in data set [2] (setting [6]), the inhibition at 0.4 µM turned out to be 100% and the inhibition at 0.04 µM turned out to be 100%. Also, in data set [2] (setting [7]), the inhibition at 4 µM stood at 100% and the inhibition at 0.4 µM came to 100%. Also, in the data set with endothelin [3] (setting [10]), the “Protective effect … (%)” value is recorded as 100** % and the “Protective effect to death Survival Total” value is 10/10.
For `Cc1nnc2n1-c1sc(CCC(=O)N3CCOCC3)cc1C(c1ccccc1Cl)=NC2` [Compd [IX], reference compound], in the data set with endothelin [4] (setting [12]), the “Protective effect … (%)” value is reported as 40** % and the “Protective effect to death Survival Total” value is on record as 6/15. In addition, in the data set on endothelin [5] (setting [12]), the “PVB counts (15 min.)” value was 12±5, the VF incidence is recorded as 4/6** and the VT incidence is 4/6**. Besides, in the data set with endothelin [3] (setting [12]), the “Protective effect … (%)” value is 53** % and the “Protective effect to death Survival Total” value is 8/15.
